Calls of active or inactive are those of the source. The calls are words filed in the database; no cut-off is given here.
What was measured:
HUVEC [1] = experiment: Cytoprotective activity against oxLDL-induced HUVEC cell damage assessed as increase in cell viability at 10 uM by SRB assay; format: functional, cell-based; settings: Homo sapiens
HUVEC [2] = experiment: Cytoprotective activity against high glucose-induced apoptosis in HUVEC cells measured after 24 hrs by TUNEL assay; format: functional, cell-based; settings: Homo sapiens, dose 5-10 µM
[3] = target: T1, Nuclear factor erythroid 2-related factor 2 (Homo sapiens) (UniProt Q16236); experiment: Induction of Nrf2 nuclear translocation in high glucose-induced HUVEC cells at 5 to 10 uM measured after 24 hrs by immunofluorescence staining analysis; format: cell-based; settings: filed as activator, dose 5-10 µM
T1 sequence (whole entry): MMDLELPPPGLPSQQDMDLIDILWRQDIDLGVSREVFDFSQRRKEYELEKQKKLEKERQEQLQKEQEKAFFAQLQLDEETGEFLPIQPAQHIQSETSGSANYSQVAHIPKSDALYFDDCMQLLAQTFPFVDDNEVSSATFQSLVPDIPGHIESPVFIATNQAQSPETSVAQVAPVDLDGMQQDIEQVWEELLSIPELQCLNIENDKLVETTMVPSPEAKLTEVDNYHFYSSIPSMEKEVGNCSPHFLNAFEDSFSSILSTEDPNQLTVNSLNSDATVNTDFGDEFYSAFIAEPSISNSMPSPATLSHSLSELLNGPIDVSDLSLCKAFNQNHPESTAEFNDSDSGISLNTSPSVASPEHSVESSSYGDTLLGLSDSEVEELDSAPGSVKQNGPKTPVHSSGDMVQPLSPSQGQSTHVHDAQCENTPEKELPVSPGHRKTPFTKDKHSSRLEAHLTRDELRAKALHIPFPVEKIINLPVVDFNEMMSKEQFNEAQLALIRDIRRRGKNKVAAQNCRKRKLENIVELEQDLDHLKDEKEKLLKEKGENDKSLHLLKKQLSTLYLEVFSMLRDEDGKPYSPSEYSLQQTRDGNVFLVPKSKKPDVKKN

HUVEC [4] = experiment: Cytoprotective activity against oxLDL-induced apoptosis in HUVEC cells measured after 6 hrs by TUNEL assay; format: functional, cell-based; settings: Homo sapiens, dose 5-10 µM
[5] = target: T1, Nuclear factor erythroid 2-related factor 2 (Homo sapiens); experiment: Induction of Nrf2/ARE activation in human Hela cells at 5 uM measured after 12 to 24 hrs by luciferase reporter gene assay relative to control; format: cell-based; settings: filed as activator, time 12-24 hrs
[6] = target: T1, Nuclear factor erythroid 2-related factor 2 (Homo sapiens); experiment: Induction of Nrf2 nuclear translocation in oxLDL-induced HUVEC cells at 5 to 10 uM measured after 6 hrs by immunofluorescence staining analysis; format: cell-based; settings: filed as activator, dose 5-10 µM
[7] = target: T1, Nuclear factor erythroid 2-related factor 2 (Homo sapiens); experiment: Induction of Nrf2/ARE activation in human Hela cells at 10 uM measured after 12 to 24 hrs by luciferase reporter gene assay relative to control; format: cell-based; settings: filed as activator, time 12-24 hrs
HUVEC [8] = experiment: Cytoprotective activity against high glucose-induced HUVEC cell damage assessed as increase in cell viability at 10 uM by SRB assay; format: functional, cell-based; settings: Homo sapiens
HUVEC [9] = experiment: Cytotoxicity against HUVEC assessed as effect on cell viability by SRB assay; format: toxicity, cell-based; settings: human
[10] = target: T1, Nuclear factor erythroid 2-related factor 2 (Homo sapiens); experiment: Induction of Nrf2/ARE activation in human Hela cells at 1 uM measured after 12 to 24 hrs by luciferase reporter gene assay relative to control; format: cell-based; settings: filed as activator, time 12-24 hrs
[11] = target: T1, Nuclear factor erythroid 2-related factor 2 (Homo sapiens); experiment: Induction of Nrf2/ARE activation in human Hela cells at 20 uM measured after 12 to 24 hrs by luciferase reporter gene assay relative to control; format: cell-based; settings: filed as activator, time 12-24 hrs
HUVEC [12] = experiment: Cytoprotective activity against high glucose induced apoptosis in HUVEC treated with scambled siRNA at 10 uM measured after 24 hrs by TUNEL assay; format: functional, cell-based; settings: Homo sapiens
HUVEC [13] = experiment: Cytoprotective activity against oxLDL-induced apoptosis in HUVEC treated with scambled siRNA at 10 uM measured after 6 hrs by TUNEL assay; format: functional, cell-based; settings: Homo sapiens
[14] = target: Keap1/Nrf2 (Homo sapiens) (UniProt Q16236+Q14145); experiment: Inhibition of Keap1-Nrf2 protein-protein interaction (unknown origin) at 100 uM measured after 60 mins by FITC-betaAla-DEETGEF-OH probe based fluorescent polarization assay
Chain of Keap1/Nrf2 (Homo sapiens) (Q14145 whole entry, looked up, one chain of several): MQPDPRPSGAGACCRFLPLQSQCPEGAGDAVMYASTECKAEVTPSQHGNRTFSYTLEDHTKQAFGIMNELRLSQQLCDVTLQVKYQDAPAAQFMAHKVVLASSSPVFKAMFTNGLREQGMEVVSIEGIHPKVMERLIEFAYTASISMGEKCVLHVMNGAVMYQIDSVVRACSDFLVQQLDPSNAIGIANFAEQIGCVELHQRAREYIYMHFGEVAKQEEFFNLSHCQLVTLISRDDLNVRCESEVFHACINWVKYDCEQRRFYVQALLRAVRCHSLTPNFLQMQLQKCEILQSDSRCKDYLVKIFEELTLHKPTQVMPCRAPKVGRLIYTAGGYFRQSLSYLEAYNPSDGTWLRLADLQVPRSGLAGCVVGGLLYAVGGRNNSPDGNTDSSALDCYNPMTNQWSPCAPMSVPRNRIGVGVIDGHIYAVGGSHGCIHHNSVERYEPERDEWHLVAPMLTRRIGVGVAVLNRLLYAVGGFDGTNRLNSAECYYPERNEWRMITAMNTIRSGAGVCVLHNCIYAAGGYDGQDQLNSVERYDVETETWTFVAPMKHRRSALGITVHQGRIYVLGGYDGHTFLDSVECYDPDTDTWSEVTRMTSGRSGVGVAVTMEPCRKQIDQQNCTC

HUVEC [15] = experiment: Cytoprotective activity against oxLDL-induced apoptosis in Nrf2-knockdown HUVEC at 10 uM measured after 6 hrs by TUNEL assay; format: functional, cell-based; settings: Homo sapiens
HUVEC [16] = experiment: Cytoprotective activity against high glucose-induced apoptosis in Nrf2-knockdown HUVEC at 10 uM measured after 24 hrs by TUNEL assay; format: functional, cell-based; settings: Homo sapiens

Structure (SMILES)	Activity (HUVEC [1])	Activity (HUVEC [2])	Activity [3]	Activity (HUVEC [4])	fold change (FC) [5]	Activity [6]	fold change (FC) [7]	Activity (HUVEC [8])	Activity (HUVEC [9])	fold change (FC) [10]	fold change (FC) [11]	Activity (HUVEC [12])	Activity (HUVEC [13])	inhibition [14]	Activity (HUVEC [15])	Activity (HUVEC [16])
N#Cc1ccc(CN2CCN(Cc3noc(Cc4c[nH]c5ccccc45)n3)CC2)cc1	Active	Dose-Dependent Effect	Active	Dose-Dependent Effect	3.14	Active	5.88	Active	Non-Toxic	1.38	5.18					
COc1ccc(/C=C/C(=O)N2CCN(Cc3noc(Cc4c[nH]c5ccccc45)n3)CC2)cc1O	Active	Dose-Dependent Effect	Active	Dose-Dependent Effect	3.69	Active	7.78	Active	Non-Toxic	1.89	7.41	Active	Active	inactive	inactive	inactive
